pIC50: −log10 of the molar value. The source made the active and inactive calls. No cut-off for these calls is given here.
Columns and labels:
Mus musculus [1] = assay: Analgesic activity in albino Swiss mouse assessed as decrease in licking or blowing time at 200 mg/kg, ip administered as single dose measured after 1 hr by hot plate test; format: functional, organism-based
Rattus norvegicus [2] = assay: Antiinflammatory activity in carrageenan induced Sprague-Dawley rat paw oedema model assessed as reduction of paw volume at 200 mg/kg, ip measured after 2 hrs by plethysmometer method; format: functional, organism-based
Rattus norvegicus [3] = assay: Antiinflammatory activity in ip dosed carrageenan induced Sprague-Dawley rat paw oedema model assessed as reduction of paw volume measured after 2 hrs by plethysmometer method; format: functional
Mus musculus [4] = assay: Analgesic activity in ip dosed albino Swiss mouse assessed as decrease in licking or blowing time administered as single dose measured after 1 hr by hot plate test; format: functional
Rattus norvegicus [5] = assay: Ulcerogenicity in ip dosed fasted Sprague-Dawley rat after 24 hrs by hand lens; format: toxicity, organism-based; details: in vivo
[6] = target: T1, Prostaglandin G/H synthase 1 (Ovis aries, UniProt P05979); assay: Inhibition of ovine COX-1 using arachidonic acid as substrate assessed as production of […] preincubated for 5 mins followed by addition of substrate measured after 2 mins by EIA
T1 sequence (P05979 whole entry): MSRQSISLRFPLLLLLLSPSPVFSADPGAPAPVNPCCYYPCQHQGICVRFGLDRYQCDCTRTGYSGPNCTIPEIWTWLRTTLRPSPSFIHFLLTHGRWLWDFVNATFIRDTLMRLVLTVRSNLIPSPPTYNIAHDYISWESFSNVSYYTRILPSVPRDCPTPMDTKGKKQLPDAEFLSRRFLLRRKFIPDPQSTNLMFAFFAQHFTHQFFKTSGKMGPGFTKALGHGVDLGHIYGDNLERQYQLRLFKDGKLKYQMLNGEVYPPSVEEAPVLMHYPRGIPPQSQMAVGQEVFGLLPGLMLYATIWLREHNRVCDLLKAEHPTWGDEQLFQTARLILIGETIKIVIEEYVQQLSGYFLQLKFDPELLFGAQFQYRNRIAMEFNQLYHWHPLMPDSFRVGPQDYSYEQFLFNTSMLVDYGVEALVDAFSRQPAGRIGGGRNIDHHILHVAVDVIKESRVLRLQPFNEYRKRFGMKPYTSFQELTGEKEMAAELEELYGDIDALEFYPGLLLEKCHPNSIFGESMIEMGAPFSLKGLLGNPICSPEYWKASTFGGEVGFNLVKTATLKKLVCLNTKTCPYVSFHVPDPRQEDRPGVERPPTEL

SMILES	Activity (Mus musculus [1])	Activity (Rattus norvegicus [2])	ED50 (Rattus norvegicus [3]) [mg/kg]	ED50 (Mus musculus [4]) [mg/kg]	Activity (Rattus norvegicus [5]) [mg/kg]	pIC50 [6]
O=C(CCl)N1N=C(c2ccccc2)CC1c1ccc([N+](=O)[O-])cc1 (stereo not drawn)	inactive	inactive	–	–	–	–
CC(=O)c1ccc(NCC(=O)N2N=C(c3ccc(F)cc3)CC2c2ccc([N+](=O)[O-])cc2)cc1 (stereo not drawn)	–	–	73.2	49.4	> 200	< 4.00
Nc1ccc(C2=NNC(c3ccc([N+](=O)[O-])cc3)C2)cc1 (stereo not drawn)	inactive	inactive	–	–	–	–
CC(=O)Nc1ccc(C2=NN(c3ccccc3)C(c3ccc([N+](=O)[O-])cc3)C2)cc1 (stereo not drawn)	–	–	91.3	75.2	> 200	–
O=C(CCl)N1N=C(c2ccc(Br)cc2)CC1c1ccc([N+](=O)[O-])cc1 (stereo not drawn)	inactive	inactive	–	–	–	–
O=C(CO[N+](=O)[O-])N1N=C(c2ccccc2)CC1c1ccc([N+](=O)[O-])cc1 (stereo not drawn)	inactive	inactive	–	–	–	–
O=C(CCl)Nc1ccc(C2=NN(C(=O)CCl)C(c3ccc([N+](=O)[O-])cc3)C2)cc1 (stereo not drawn)	–	–	90.3	81.9	> 200	–
Fc1ccc(C2=NNC(c3ccc(Cl)cc3)C2)cc1 (stereo not drawn)	inactive	inactive	–	–	–	–
O=C(CO[N+](=O)[O-])N1N=C(c2ccc(Br)cc2)CC1c1ccc([N+](=O)[O-])cc1 (stereo not drawn)	inactive	inactive	–	–	–	–
Nc1ccc(C2=NN(C(=O)CCl)C(c3ccc([N+](=O)[O-])cc3)C2)cc1 (stereo not drawn)	inactive	inactive	–	–	–	–
O=[N+]([O-])c1ccc(C2CC(c3ccc(F)cc3)=NN2)cc1 (stereo not drawn)	–	–	89.7	59.1	> 200	–
O=C(CCl)N1N=C(c2ccc(F)cc2)CC1c1ccc([N+](=O)[O-])cc1 (stereo not drawn)	–	–	98.4	68.2	> 200	–
Cc1ccc(-c2cc(C(F)(F)F)nn2-c2ccc(S(N)(=O)=O)cc2)cc1 [CELECOXIB]	–	–	89	72	> 200	–
O=C(CO[N+](=O)[O-])N1N=C(c2ccc(F)cc2)CC1c1ccc([N+](=O)[O-])cc1 (stereo not drawn)	–	–	65.3	55.1	> 200	< 4.00
CC(=O)c1ccc(NCC(=O)N2N=C(c3ccccc3)CC2c2ccc([N+](=O)[O-])cc2)cc1 (stereo not drawn)	–	–	59.4	38.6	> 200	< 4.00
CC(=O)c1ccc(NCC(=O)N2N=C(c3ccc(Br)cc3)CC2c2ccc([N+](=O)[O-])cc2)cc1 (stereo not drawn)	–	–	95.9	87.8	> 200	–
CC(=O)Nc1ccc(C2=NN(c3ccccc3)C(c3ccc(Cl)cc3)C2)cc1 (stereo not drawn)	–	–	74.2	49.6	> 200	< 4.00
CC(=O)Nc1ccc(C2=NN(C(C)=O)C(c3ccc([N+](=O)[O-])cc3)C2)cc1 (stereo not drawn)	–	–	–	48.1	> 200	< 4.00
O=C(CO[N+](=O)[O-])N1N=C(c2ccc(Br)cc2)CC1c1ccc(Cl)cc1 (stereo not drawn)	inactive	inactive	–	–	–	–

— ChEMBL document CHEMBL3779775, “Synthesis, anti-inflammatory, analgesic, COX-1/2 inhibition activities and molecular docking study of pyrazoline derivatives” (Bioorg Med Chem, 2016)
